Values of other authors, collected in patent US20090148532A1, “Preparation of controlled release skeletal muscle relaxant dosage forms” (priority 2007, published 2009).

Settings: after oral administration

Elimination half-life: one to three
Compound: CN(C)CCC=C1c2ccccc2C=Cc2ccccc21 [Cyclobenzaprine]
